Values of other authors as cited in US4582821A, “Inhibition of cyclic nucleotide independent protein kinases” (E. I. Du Pont de Nemours and Company, priority 1983, dated 1986).

Columns and labels:
hexokinase = settings: Johnson et al., Biochemistry 21:2984 (1982); cited from earlier work
protein kinase = settings: Johnson et al., Biochemistry 21:2984 (1982); cited from earlier work

CC(C)COC(=O)OC(C)C(=O)CCl (centres unmarked) [2-isobutyl 3-oxo-4-chloro-2-butyl carbonate]
hexokinase activity of Ehrlich ascites tumor cells (in words) (hexokinase): inhibition | protein kinase activity of Ehrlich ascites tumor cells (in words) (protein kinase): inhibition
